# Results: US12071434B2, “Heterocyclic compound” (Takeda Pharmaceutical Company Limited, priority 2018, dated 2024)
# Biological target: T1, human orexin type 2 receptor (Homo sapiens, UniProt O43614)
# T1 construct: expressed in transfected cells
# T1 sequence (O43614 1-444): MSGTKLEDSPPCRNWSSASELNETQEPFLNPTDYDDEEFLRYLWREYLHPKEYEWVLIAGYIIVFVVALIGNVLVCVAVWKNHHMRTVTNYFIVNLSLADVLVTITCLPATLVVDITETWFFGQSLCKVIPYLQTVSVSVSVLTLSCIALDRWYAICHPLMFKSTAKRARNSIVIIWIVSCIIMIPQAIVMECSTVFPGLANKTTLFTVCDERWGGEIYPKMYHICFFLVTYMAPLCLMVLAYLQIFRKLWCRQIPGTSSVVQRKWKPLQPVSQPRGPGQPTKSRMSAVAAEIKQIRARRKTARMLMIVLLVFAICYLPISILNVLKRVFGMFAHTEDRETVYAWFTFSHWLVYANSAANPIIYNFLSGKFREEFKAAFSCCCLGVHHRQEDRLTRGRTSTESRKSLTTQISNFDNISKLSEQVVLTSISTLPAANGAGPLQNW
# Test: Measurement of orexin type 2 receptor agonist activity (calcium fluorescence, Fluo-4 AM, FDSS) in CHO cells forcibly expressing human OX2 receptor
# Assay type: cell-based
# Details: test compound 3 μM, DMSO = 0%, orexin A (human) 10 nM = 100%
# Summary of the method: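 CHO-dhfr cells stably expressing human OX2 receptor, loaded with Fluo-4 AM plus probenecid for 30 min at 37 °C, then 30 min at room temperature. Calcium fluorescence read for about 2 min 40 s after compound addition. Activity (%) scaled between DMSO (0%) and 10 nM human orexin A (100%).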
row,SMILES,"0X2R agonist activity (3 μM, %) [%]"
1,"CC(C)n1cnc2c(c1=O)[C@@H](Cc1cccc(-c3ccccc3)c1)[C@@H](NS(C)(=O)=O)CC2 (relative stereo) [Example 99, rel-N-[(5R,6S)-5-[([1,1′-biphenyl]-3-yl)methyl]-4-oxo-3-(propan-2-yl)-3,4,5,6,7,8-hexahydroquinazolin-6-yl]methanesulfonamide]",95
2,"CC1OC[C@@H]2CC[C@H](NS(C)(=O)=O)[C@H](Cc3cccc(-c4cccc(F)c4)c3)N2C1=O (relative stereo) [Example 140, rel-N-{(6S,7S,9aS)-6-[(3′-fluoro[1,1′-biphenyl]-3-yl)methyl]-3-methyl-4-oxooctahydropyrido[2,1-c][1,4]oxazin-7-yl}methanesulfonamide]",94
3,"CC(C)n1cnc2c(c1=O)[C@@H](Cc1cc(F)cc(-c3ccccc3)c1)[C@@H](NS(C)(=O)=O)CC2 (relative stereo) [Example 141, rel-N-[(5R,6S)-5-[(5-fluoro[1,1′-biphenyl]-3-yl)methyl]-4-oxo-3-(propan-2-yl)-3,4,5,6,7,8-hexahydroquinazolin-6-yl]methanesulfonamide]",103
4,"CC(C)n1cnc2c(c1=O)[C@@H](Cc1cccc(-c3ccccc3)c1)[C@@H](NS(=O)(=O)CF)CC2 (relative stereo) [Example 145, rel-N-[(5R,6S)-5-[([1,1′-biphenyl]-3-yl)methyl]-4-oxo-3-(propan-2-yl)-3,4,5,6,7,8-hexahydroquinazolin-6-yl]-1-fluoromethanesulfonamide]",92
5,"CC(C)n1cnc2c(c1=O)[C@@H](Cc1cccc(-c3ccccc3F)c1F)[C@@H](NS(C)(=O)=O)CC2 (relative stereo) [Example 149, rel-N-[(5R,6S)-5-[(2,2′-difluoro[1,1′-biphenyl]-3-yl)methyl]-4-oxo-3-(propan-2-yl)-3,4,5,6,7,8-hexahydroquinazolin-6-yl]methanesulfonamide]",105
6,"CC(C)n1cnc2c(c1=O)[C@@H](Cc1ccc(F)c(-c3ccccc3)c1)[C@@H](NS(C)(=O)=O)CC2 (relative stereo) [Example 150, rel-N-[(5R,6S)-5-[(6-fluoro[1,1′-biphenyl]-3-yl)methyl]-4-oxo-3-(propan-2-yl)-3,4,5,6,7,8-hexahydroquinazolin-6-yl]methanesulfonamide]",98
7,"CC(C)n1cnc2c(c1=O)[C@@H](Cc1cccc(-c3cccc(F)c3F)c1F)[C@@H](NS(C)(=O)=O)CC2 (relative stereo) [Example 151, rel-N-{(5R,6S)-4-oxo-3-(propan-2-yl)-5-[(2,2′,3′-trifluoro[1,1′-biphenyl]-3-yl)methyl]-3,4,5,6,7,8-hexahydroquinazolin-6-yl}methanesulfonamide]",107
8,"CC(C)n1cnc2c(c1=O)[C@@H](Cc1cccc(-c3cccc(C(F)F)c3F)c1F)[C@@H](NS(C)(=O)=O)CC2 (relative stereo) [Example 152, rel-N-[(5R,6S)-5-{[3′-(difluoromethyl)-2,2′-difluoro[1,1′-biphenyl]-3-yl]methyl}-4-oxo-3-(propan-2-yl)-3,4,5,6,7,8-hexahydroquinazolin-6-yl]methanesulfonamide]",94
9,"CC(C)n1cnc2c(c1=O)[C@@H](Cc1csc(-c3cccc(F)c3F)n1)[C@@H](NS(C)(=O)=O)CC2 (relative stereo) [Example 154, rel-N-[(5R,6S)-5-{[2-(2,3-difluorophenyl)-1,3-thiazol-4-yl]methyl}-4-oxo-3-(propan-2-yl)-3,4,5,6,7,8-hexahydroquinazolin-6-yl]methanesulfonamide]",100
10,"CC(C)n1cnc2c(c1=O)[C@@H](Cc1csc(-c3ccccc3F)n1)[C@@H](NS(C)(=O)=O)CC2 (relative stereo) [Example 155, rel-N-[(5R,6S)-5-{[2-(2-fluorophenyl)-1,3-thiazol-4-yl]methyl}-4-oxo-3-(propan-2-yl)-3,4,5,6,7,8-hexahydroquinazolin-6-yl]methanesulfonamide]",104
11,"CC(C)n1cnc2c(c1=O)[C@@H](Cc1csc(-c3ccccc3F)n1)[C@@H](NS(=O)(=O)C1(F)CC1)CC2 (relative stereo) [Example 156, rel-1-fluoro-N-[(5R,6S)-5-{[2-(2-fluorophenyl)-1,3-thiazol-4-yl]methyl}-4-oxo-3-(propan-2-yl)-3,4,5,6,7,8-hexahydroquinazolin-6-yl]cyclopropane-1-sulfonamide]",93
12,"CC(C)N1CNC2=C(C1=O)[C@@H](Cc1csc(-c3ccccc3F)n1)[C@@H](NS(=O)(=O)C1(F)CC1)CC2 (relative stereo) [Example 157, rac-1-fluoro-N-[(5R,6S)-5-{[2-(2-fluorophenyl)-1,3-thiazol-4-yl]methyl}-4-oxo-3-(propan-2-yl)-1,2,3,4,5,6,7,8-octahydroquinazolin-6-yl]cyclopropane-1-sulfonamide]",99
13,"CC(C)c1nn(C)c2c(c1=O)[C@@H](Cc1cccc(-c3ccccc3)c1)[C@@H](NS(C)(=O)=O)CC2 (relative stereo) [Example 161, rel-N-[(5R,6S)-5-[([1,1′-biphenyl]-3-yl)methyl]-1-methyl-4-oxo-3-(propan-2-yl)-1,4,5,6,7,8-hexahydrocinnolin-6-yl]methanesulfonamide]",101
14,"CC(C)n1cnc2c(c1=O)[C@@H](Cc1csc(-c3ccccc3)n1)[C@@H](NS(=O)(=O)C1CC1)CC2 (relative stereo) [Example 169, rel-N-[(5R,6S)-4-oxo-5-[(2-phenyl-1,3-thiazol-4-yl)methyl]-3-(propan-2-yl)-3,4,5,6,7,8-hexahydroquinazolin-6-yl]cyclopropanesulfonamide]",91
15,"CC(C)n1cnc2c(c1=O)[C@@H](Cc1cccc(-c3cc(F)cc(F)c3)c1)[C@@H](NS(=O)(=O)C1(F)CC1)CC2 (relative stereo) [Example 187, rel-N-[(5R,6S)-5-[(3′,5′-difluoro[1,1′-biphenyl]-3-yl)methyl]-4-oxo-3-(propan-2-yl)-3,4,5,6,7,8-hexahydroquinazolin-6-yl]-1-fluorocyclopropane-1-sulfonamide]",94
16,"CC(C)n1cnc2c(c1=O)[C@@H](Cc1cccc(-c3ccccc3)c1F)[C@@H](NS(=O)(=O)C1CC1)[C@H](F)C2 (relative stereo) [Example 206, rel-N-[(5R,6R,7R)-7-fluoro-5-[(2-fluoro[1,1′-biphenyl]-3-yl)methyl]-4-oxo-3-(propan-2-yl)-3,4,5,6,7,8-hexahydroquinazolin-6-yl]cyclopropanesulfonamide]",96
17,"Cc1ccc2n(c1=O)C(Cc1cccc(-c3cccc(F)c3)c1)C(NC(=O)[C@@H]1CCCO1)CC2 (stereo in doubt) [Example 44, (2S)-N-{(3S*,4S*)-4-[(3′-fluoro[1,1′-biphenyl]-3-yl)methyl]-7-methyl-6-oxo-1,3,4,6-tetrahydro-2H-quinolizin-3-yl}oxolane-2-carboxamide]",96
18,"Cc1ccc2n(c1=O)C(Cc1cccc(-c3cccc(F)c3)c1F)C(NC(=O)[C@@H]1CCCO1)CC2 (stereo in doubt) [Example 54, (2S)-N-{(3S*,4S*)-4-[(2,3′-difluoro[1,1′-biphenyl]-3-yl)methyl]-7-methyl-6-oxo-1,3,4,6-tetrahydro-2H-quinolizin-3-yl}oxolane-2-carboxamide]",97
19,"CC(C)n1cnc2c(c1=O)C(Cc1cccc(-c3cccc(F)c3)c1)C(NS(C)(=O)=O)CC2 [Example 89, rel-N-[(5R,6S)-5-[(3′-fluoro[1,1′-biphenyl]-3-yl)methyl]-4-oxo-3-(propan-2-yl)-3,4,5,6,7,8-hexahydroisoquinazolin-6-yl]methanesulfonamide]",101
20,"CCS(=O)(=O)N[C@H]1CCc2ncn(C(C)C)c(=O)c2[C@H]1Cc1cccc(-c2cccc(F)c2)c1F [Example 170, N-[(5R,6S)-5-[(2,3′-difluoro[1,1′-biphenyl]-3-yl)methyl]-4-oxo-3-(propan-2-yl)-3,4,5,6,7,8-hexahydroquinazolin-6-yl]ethanesulfonamide]",87
21,"CC(C)n1cnc2c(c1=O)[C@@H](Cc1cccc(-c3cc(F)cc(F)c3)c1)[C@@H](NS(=O)(=O)C1CC1)CC2 [Example 175, N-[(5R,6S)-5-[(3′,5′-difluoro[1,1′-biphenyl]-3-yl)methyl]-4-oxo-3-(propan-2-yl)-3,4,5,6,7,8-hexahydroquinazolin-6-yl]cyclopropanesulfonamide]",85
22,"CCS(=O)(=O)N[C@H]1CCc2ncn(C(C)C)c(=O)c2[C@H]1Cc1cccc(-c2cc(F)cc(F)c2)c1 [Example 177, N-[(5R,6S)-5-[(3′,5′-difluoro[1,1′-biphenyl]-3-yl)methyl]-4-oxo-3-(propan-2-yl)-3,4,5,6,7,8-hexahydroquinazolin-6-yl]ethanesulfonamide]",95
23,"CC(C)n1cnc2c(c1=O)[C@@H](Cc1cccc(-c3cccc(F)c3)c1F)[C@@H](NS(=O)(=O)C1(F)CC1)CC2 [Example 181, N-[(5R,6S)-5-[(2,3′-difluoro[1,1′-biphenyl]-3-yl)methyl]-4-oxo-3-(propan-2-yl)-3,4,5,6,7,8-hexahydroquinazolin-6-yl]-1-fluorocyclopropane-1-sulfonamide]",91
